Test results reported in patent US20110105397A1, “METHOD FOR TREATING HEART FAILURE WITH STRESSCOPIN-LIKE PEPTIDES” (priority 2009, published 2011).
Read-outs that look alike come from different tables or passages of the source.

Columns and labels:
[1] = Nonclinical pharmacokinetics in cynomolgus monkeys; settings: cynomolgus monkey, in vivo
Procedure: A sandwich immunoassay was developed using an affinity purified goat polyclonal antibody, specific to h-SCP that was pre-coated onto a microplate with integrated electrodes. h-SCP molecules present in the sample will bind to the capture polyclonal antibody coated on the plate. After washing away any unbound substances, a sulfo-tagged mouse monoclonal anti-h-SCP antibody was added. This conjugated antibody will bind to the h-SCP molecules captured on the microplate and the quantity of analyte was determined by electrochemiluminescence. The amount of signal generated is directly proportional to the h-SCP concentration in the sample or standard. The standard curve range is 3.125-1600 pg/mL with a quantifiable range from 10-800 pg/mL. A sample volume of 25 μL (in duplicate) is required for this assay. This immunoassay is specific for human and dog stresscopin and human urocortin III (h-UCN3). […] After completion of the analysis, based on a comparison of reference standards between the ELISA and HPLC method, a correction factor of 1.57 was applied to all bioanalytical data.
The nonclinical pharmacokinetics of h-SCP (SEQ ID NO:1) and pegylated stresscopin-like peptides were studied in rats, dogs, and cynomolgus monkeys (cyno). Nonclinical pharmacokinetic studies focused on characterization of IV infusion at pharmacologically relevant dose levels, supplemented with IV and SC bolus and toxicokinetic analysis.

[2] = Human pharmacokinetics, healthy subjects, 7.5-hour continuous ascending dose IV infusion; type: in vivo; settings: for half-life / clearance / Cmax / Tmax / AUC(0-inf): human, in vivo
Procedure: In healthy subjects following a 7.5-hour continuous ascending dose IV infusion of h-SCP (SEQ ID NO:1) noncompartmental pharmacokinetic analyses were performed to determine plasma concentrations of h-SCP (SEQ ID NO:1). Plasma h-SCP (SEQ ID NO:1) reached the steady state shortly after initiating the IV infusion (FIG. 16A). […] Within 30 minutes, plasma h-SCP (SEQ ID NO:1) was reduced to ≦20% of the h-SCP (SEQ ID NO:1) level at the end of infusion. […] However, the additional compartment's contribution to the overall exposure and accumulation of h-SCP (SEQ ID NO:1) is likely marginal as indicated by the effective half-lives.

[3] = Human pharmacokinetics, heart failure subjects, 7.5-hour continuous ascending dose IV infusion; settings: in vivo; for Tmax: median
Procedure: In heart failure subjects following a 7.5-hour continuous ascending dose IV infusion of h-SCP (SEQ ID NO:1) noncompartmental pharmacokinetic analyses were performed on plasma concentrations of h-SCP (SEQ ID NO:1). The pharmacokinetics of h-SCP (SEQ ID NO:1) in heart failure subjects appeared to be similar to that of healthy subjects. […] Within 30 minutes, plasma h-SCP (SEQ ID NO:1) was reduced to equal or less than 20% of the h-SCP (SEQ ID NO:1) level at the end of the infusion (FIG. 16B).

[4] = female, cyno IV infusion 3 hours, F, 16.7 ng/kg/min
[5] = female, cyno IV infusion 3 hours, F, 33.3 ng/kg/min
[6] = female, cyno IV infusion 3 hours, F, 100 ng/kg/min
[7] = male, cyno IV infusion 3 hours, M, 16.7 ng/kg/min
[8] = male, cyno IV infusion 3 hours, M, 33.3 ng/kg/min
[9] = male, cyno IV infusion 3 hours, M, 100 ng/kg/min
[10] = healthy subjects, infusion rate 9/18/36 ng/kg/min, mean, N = 5
[11] = healthy subjects, infusion rate 18/54/72 ng/kg/min, mean, N = 3
[12] = healthy subjects, infusion rate 36/72/144 ng/kg/min, N = 1
[13] = healthy subjects, infusion rate 54/72/108 ng/kg/min, mean, N = 2
[14] = infusion rate 1/3/9 ng/kg/min, mean, N = 2
[15] = infusion rate 3/9/18 ng/kg/min, mean, N = 2
[16] = infusion rate 3/18/54 ng/kg/min, mean, N = 2

Substance: H-TKFTLSLDVPTNIMNLLFNIAKAKNLRAQAAANAHLMAQI-NH2 [SEQ ID NO: 1, TKFTLSLDVPTNIMNLLFNIAKAKNLRAQAAANAHLMAQI-NH2]
- time to apparent steady-state plasma concentration after initiation of infusion ([1]; iv): ≤ 1 h
- half-life ([1]; monkeys, two-compartment analysis, read-out: alpha-phase half-life (t1/2 alpha)): < 0.0833 h
- clearance ([1]; cynomolgus monkeys, 16.7 to 100 ng/kg/min, read-out: clearance values (CL)): 30 to 40 mL/min/kg
- Vss ([1]; female, iv): 0.921 L/kg
- half-life ([1]; female, iv, 33.3 ng/kg/min, cyno IV infusion 3 hours, F, 33.3 ng/kg/min, read-out: t1/2 alpha): 0.0667 h
- half-life ([1]; female, iv, 33.3 ng/kg/min, cyno IV infusion 3 hours, F, 33.3 ng/kg/min, read-out: t1/2 terminal): 0.247 h
- Vd ([1]; female, iv, Vss): 0.848 L/kg
- half-life ([1]; female, iv, t1/2 alpha): 0.0517 h
- AUC(0-inf) [1, 4]: 1.31 ng·h/mL
- Cmax [1, 4]: 0.613 ng/mL
- clearance ([1]; female, cyno IV infusion 3 hours, F, 16.7 ng/kg/min, read-out: CL): 39.7 mL/min/kg
- AUC(0-inf) [1, 5]: 2.34 ng·h/mL
- Cmax [1, 5]: 0.958 ng/mL
- clearance ([1]; female, cyno IV infusion 3 hours, F, 33.3 ng/kg/min, read-out: CL): 42.9 mL/min/kg
- Vd ([1]; female, cyno IV infusion 3 hours, F, 33.3 ng/kg/min, read-out: Vss): 0.931 L/kg
- AUC(0-inf) [1, 6]: 7.67 ng·h/mL
- Cmax [1, 6]: 3.16 ng/mL
- clearance ([1]; female, cyno IV infusion 3 hours, F, 100 ng/kg/min, read-out: CL): 39.1 mL/min/kg
- Vss ([1]; male, iv): 0.899 L/kg
- half-life ([1]; male, iv, 33.3 ng/kg/min, cyno IV infusion 3 hours, M, 33.3 ng/kg/min, read-out: t1/2 alpha): 0.0617 h
- half-life ([1]; male, iv, 33.3 ng/kg/min, cyno IV infusion 3 hours, M, 33.3 ng/kg/min, read-out: t1/2 terminal): 0.433 h
- Vd ([1]; male, iv, Vss): 0.788 L/kg
- half-life ([1]; male, iv, t1/2 alpha): 0.0483 h
- AUC(0-inf) [1, 7]: 1.73 ng·h/mL
- Cmax [1, 7]: 0.873 ng/mL
- clearance ([1]; male, cyno IV infusion 3 hours, M, 16.7 ng/kg/min, read-out: CL): 30.2 mL/min/kg
- AUC(0-inf) [1, 8]: 3.47 ng·h/mL
- Cmax [1, 8]: 1.48 ng/mL
- clearance ([1]; male, cyno IV infusion 3 hours, M, 33.3 ng/kg/min, read-out: CL): 29.2 mL/min/kg
- Vd ([1]; male, cyno IV infusion 3 hours, M, 33.3 ng/kg/min, read-out: Vss): 0.611 L/kg
- AUC(0-inf) [1, 9]: 9.79 ng·h/mL
- Cmax [1, 9]: 4.45 ng/mL
- clearance ([1]; male, cyno IV infusion 3 hours, M, 100 ng/kg/min, read-out: CL): 30.7 mL/min/kg
- human equivalent dose to achieve Cpss of 620 pg/mL ([2]; dose = CL × Cpss / weight, 70 kg): 4.4 ng/kg/min
- expected steady-state plasma concentration (Cpss) ([2]; human starting dose of 0.1 ng/kg/min, pharmacokinetic-based approach): 8.6 pg/mL
- half-life ([2]; healthy subjects, across dose groups, read-out: Mean effective half-life): 1.54 to 14.2 h
- clearance ([2]; healthy subjects, across dose groups, read-out: Mean systemic clearance): 4.5 to 7 mL/min/kg
- half-life ([2]; healthy subjects, across dose groups, read-out: Mean terminal half-life): 2.13 to 28.5 h
- Cmax ([2]; healthy subjects, infusion rate 0.1/0.3/1 ng/kg/min, mean, N = 5): 0.248 ng/mL
- Tmax ([2]; healthy subjects, infusion rate 0.1/0.3/1 ng/kg/min, median, N = 5): 7.47 h
- AUC(0-inf) ([2]; healthy subjects, infusion rate 1/3/9 ng/kg/min, mean, N = 4): 7.41 ng·h/mL
- clearance ([2]; healthy subjects, infusion rate 1/3/9 ng/kg/min, mean, N = 4, read-out: CL (converted)): 4.67 mL/min/kg
- Tmax ([2]; healthy subjects, infusion rate 1/3/9 ng/kg/min, median, N = 5): 7 h
- AUC(0-inf) [2, 10]: 28.9 ng·h/mL
- Cmax [2, 10]: 7.26 ng/mL
- clearance ([2]; healthy subjects, infusion rate 9/18/36 ng/kg/min, mean, N = 5, read-out: CL (converted)): 5.5 mL/min/kg
- Tmax ([2]; healthy subjects, infusion rate 9/18/36 ng/kg/min, median, N = 5): 7 h
- AUC(0-inf) ([2]; healthy subjects, infusion rate 18/36/72 ng/kg/min, N = 1): 68.7 ng·h/mL
- clearance ([2]; healthy subjects, infusion rate 18/36/72 ng/kg/min, N = 1, read-out: CL (converted)): 4.67 mL/min/kg
- Cmax ([2]; healthy subjects, infusion rate 18/36/72 ng/kg/min, mean, N = 2): 14.1 ng/mL
- Tmax ([2]; healthy subjects, infusion rate 18/36/72 ng/kg/min, median, N = 2): 6.46 h
- AUC(0-inf) [2, 11]: 55.9 ng·h/mL
- Cmax [2, 11]: 9.01 ng/mL
- clearance ([2]; healthy subjects, infusion rate 18/54/72 ng/kg/min, mean, N = 3, read-out: CL (converted)): 6.83 mL/min/kg
- Tmax ([2]; healthy subjects, infusion rate 18/54/72 ng/kg/min, median, N = 3): 5.5 h
- AUC(0-inf) [2, 12]: 138 ng·h/mL
- Cmax [2, 12]: 29.1 ng/mL
- Tmax [2, 12]: 7.42 h
- clearance ([2]; healthy subjects, infusion rate 36/72/144 ng/kg/min, N = 1, read-out: CL (converted)): 4.5 mL/min/kg
- AUC(0-inf) [2, 13]: 95.5 ng·h/mL
- Cmax [2, 13]: 14.6 ng/mL
- clearance ([2]; healthy subjects, infusion rate 54/72/108 ng/kg/min, mean, N = 2, read-out: CL (converted)): 7 mL/min/kg
- Tmax ([2]; healthy subjects, infusion rate 54/72/108 ng/kg/min, median, N = 2): 6.99 h
- clearance ([2]; iv, healthy humans, intravenous infusion, for a 70-kg person, read-out: clearance (CL) (converted)): ~500 mL/min
- AUC(0-inf) ([3]; infusion rate 0.3/1/3 ng/kg/min, N = 1): 3.4 ng·h/mL
- clearance ([3]; infusion rate 0.3/1/3 ng/kg/min, N = 1, read-out: CL (converted)): 3.17 mL/min/kg
- Cmax ([3]; infusion rate 0.3/1/3 ng/kg/min, mean, N = 2): 0.826 ng/mL
- Tmax ([3]; infusion rate 0.3/1/3 ng/kg/min, N = 2): 6.25 h
- AUC(0-inf) [3, 14]: 6.72 ng·h/mL
- Cmax [3, 14]: 1.98 ng/mL
- clearance ([3]; infusion rate 1/3/9 ng/kg/min, mean, N = 2, read-out: CL (converted)): 5.33 mL/min/kg
- Tmax ([3]; infusion rate 1/3/9 ng/kg/min, N = 2): 7.04 h
- AUC(0-inf) [3, 15]: 19 ng·h/mL
- Cmax [3, 15]: 4.77 ng/mL
- clearance ([3]; infusion rate 3/9/18 ng/kg/min, mean, N = 2, read-out: CL (converted)): 4 mL/min/kg
- Tmax ([3]; infusion rate 3/9/18 ng/kg/min, N = 2): 6.75 h
- AUC(0-inf) [3, 16]: 24.9 ng·h/mL
- Cmax [3, 16]: 6.41 ng/mL
- clearance ([3]; infusion rate 3/18/54 ng/kg/min, mean, N = 2, read-out: CL (converted)): 7.67 mL/min/kg
- Tmax ([3]; infusion rate 3/18/54 ng/kg/min, N = 2): 6.04 h
- AUC(0-inf) ([3]; infusion rate 9/18/36 ng/kg/min, mean, N = 2): 33.8 ng·h/mL
- clearance ([3]; infusion rate 9/18/36 ng/kg/min, mean, N = 2, read-out: CL (converted)): 5.5 mL/min/kg
- half-life ([3]; infusion rate 9/18/36 ng/kg/min, mean, N = 2, read-out: T1/2, effective (converted)): 3.95 h
- Cmax ([3]; infusion rate 9/18/36 ng/kg/min, mean, N = 3): 5.52 ng/mL
- Tmax ([3]; infusion rate 9/18/36 ng/kg/min, N = 3): 7.48 h
- AUC(0-inf) ([3]; infusion rate 18/36/45 ng/kg/min, N = 1): 51.5 ng·h/mL
- clearance ([3]; infusion rate 18/36/45 ng/kg/min, N = 1, read-out: CL (converted)): 4.83 mL/min/kg
- Cmax ([3]; infusion rate 18/36/45 ng/kg/min, mean, N = 2): 8.04 ng/mL
- Tmax ([3]; infusion rate 18/36/45 ng/kg/min, N = 2): 7.34 h
- clearance ([3]; read-out: Mean systemic clearance): 3.17 to 7.67 mL/min/kg
- half-life ([3]; read-out: Mean terminal half-life): 0.24 to 7.04 h
- half-life ([3]; read-out: effective half-life): 1.32 to 2.51 h
